Here are results for one compound from patent US20060083657A1, “Indicator device having an active agent encapsulated in an electrospun nanofiber” (STERIS Inc., priority 2004, published 2006).

The subject of assay [1] is Escherichia coli ATCC 25922. The assay is described as follows: Disk diffusion method, zone of inhibition on lawn plates. Type of assay: cell-based. The following applies: polymer mat disk, 37° C., 7 days. The protocol: (§1) The effectiveness of the CHG polymer mat was investigated using a disk diffusion method on Staphylococcus aureus ATCC 6538 and Escherichia coli ATCC 25922 lawn plates. The plates were prepared for each organism by dispensing and spreading 0.1 mL of the bacterium over the entire surface of prepared tryptic soy agar plates to create a “lawn.” Concentrations of chlorhexidine gluconate (CHG) at 0.25%, 0.5%, and 1.0% were electrospun with Tecoflex to produce an antimicrobial polymer mat. The polymer mats were cut into two 0.5-1.0 inch diameter disks for each CHG concentration. One disk per plate was placed into the center of the bacterial plate The plates were then incubated at 37° C. for 7 days to determine the zone of inhibition or antimicrobial coverage around the disk (measured in millimeters diameter), which simulates the persistence of an antimicrobial dressing to inactivate resident microorganisms on the skin. For S. aureus, 0.25%, 0.50%, and 1.0% CHG was effective showing mean zones of 20 mm, 25 mm, and 25 mm zones, respectively at 7 days, while at the same concentrations E. coli mean zones were 11 mm, 23 mm, and 28 mm.
Background: A growth-free zone around the sample is the usual read-out of agar diffusion tests.

Assay [2] has as its system Staphylococcus aureus ATCC 6538. Described as above. The class given is cell-based. The settings on record: polymer mat disk, 37° C., 7 days. The protocol: as §1
Setting [3] is: 0.25% CHG electrospun with Tecoflex.
Setting [4] is: 0.50% CHG electrospun with Tecoflex.
The mark [5] stands for this setting: 1.0% CHG electrospun with Tecoflex.

SMILES strings stand for the structures.

With `N=C(NCCCCCCNC(=N)NC(=N)Nc1ccc(Cl)cc1)NC(=N)Nc1ccc(Cl)cc1.O=C(O)[C@H](O)[C@@H](O)[C@H](O)[C@H](O)CO.O=C(O)[C@H](O)[C@@H](O)[C@H](O)[C@H](O)CO` [CHG, Chlorhexidine Gluconate], the “mean zone of inhibition (diameter)” value was found to be 11 mm in assay [1] (setting [3]); 23 mm in assay [1] (setting [4]); 28 mm in assay [1] (setting [5]); 20 mm in assay [2] (setting [3]); 25 mm in assay [2] (setting [4]); 25 mm in assay [2] (setting [5]).
